Laboratory results reported in patent US9108905B2, “TRPA1 antagonists” (AbbVie Inc., priority 2008, dated 2015).

Experiments:
[1] = target: Human TRPA1 (Homo sapiens (Human), UniProt O75762); assay: FLIPR based intracellular Ca2+ assay and membrane potential assay, inhibition of AITC-activated TRPA1; assay type: cell-based; conditions: Table 1, AITC as agonist, HEK293-F cells transiently expressing human TRPA1
Protocol: Molecular biology and transient expression were performed as described in Chen, J. et al., Journal of Biomolecular Screening 2007, 12, 61-69. Briefly, TRPA1 full length cDNA was amplified from human dorsal root ganglia total RNA (BD Bioscience Clontech, Palo Alto, Calif., USA) and was cloned into pcDNA3.1/V5-His Topo vector (Invitrogen, Carlsbad, Calif.). Large scale transient transfection was performed using the FreeStyle™ 293 Expression System as recommended by the manufacturer (Invitrogen). HEK293-F cells were grown in suspension in flasks (cell volume 30 mL to 1 liter) or in a Wave Bioreactor (Wave Biotech, Somerset, N.J.) (6 liters). To support high density, suspension culture and transfection, cells were cultured in FreeStyle 293 media, an optimized, serum free formulation. 293fectin™ (Invitrogen) was used as transfection reagent. In a transfection of 3×10^7 cells (30 mL volume), 30 μg of plasmid DNA and 40 μL 293 fectin were used. For a larger volume transfection, each reagent was scaled up proportionally. Two days post-transfection, cells were harvested by centrifugation (1000×g, 5 minutes) and resuspended to a density of 1.5×10^7 cells/mL in freezing medium (Freestyle media/10% serum/10% DMSO). Cells were transferred into cryovials in 2 mL aliquots, and these vials were placed in Nalgene Mr. Frosty slow-freeze devices (Sigma-Aldrich, St. Louis, Mo.) at −80° C. As needed, vials were removed from −80° C. and quickly thawed in a 37° C. water bath. Cells were aseptically transferred into conical tubes containing Freestyle media (10 mL/vial). After centrifugation at 1,000×g for 3-5 minutes, medium was removed by aspiration and cells were resuspended in Freestyle medium at desired densities (typically 1×10^6 cells/mL). Re-suspended cells were seeded into black-walled clear-bottom 96-well Biocoat™ poly-D-lysine assay plates (BD Biosciences, Bedford, Mass.)(10^5 cells/well) and incubated overnight at 37° C. under a humidified 5% CO2 atmosphere.
FLIPR Based Intracellular Ca^2+ Assay and Membrane Potential Assay
Ca^2+ influx was measured using a FLIPR calcium assay kit (R8033; Molecular Devices, Sunnyvale, Calif.). The Ca^2+ indicator dye was dissolved in Hanks' balanced salt solution supplemented with 20 mM HEPES buffer (HBSS/HEPES) according to the manufacturer instructions. […] (4×) solutions of the test compounds were prepared in HBSS/HEPES, and 50 μL were added to the cells at a delivery rate of 10 μL/sec. Changes in fluorescence were measured over time in a fluorometric imaging plate reader (FLIPR, Molecular Devices). Two additions were made over the course of an experimental run. For agonist experiments, assay buffer was added at the 10 s time point, followed by addition of agonist at the 3 minute 10 sec time point. For antagonist experiments, the antagonist was added at the 10 sec time point, followed by addition of the agonist 3 minutes later. Final assay volume for both the agonist and antagonist experiments was 200 μL. Total length of an experimental run was 6.5 minutes.
Data was analyzed with GraphPad Prism® software (GraphPad Software, San Diego, Calif.), using a four-parameter logistic Hill equation to curve-fit concentration-effect data and derive EC50 or IC50 values. Numerical values are reported as mean±SEM (n=number of experiments). SEM is calculated by dividing the standard deviation by the square root of the sample size […].
Changes in membrane potential were measured in hTRPA1-expressing LSTT cells using a FLIPR membrane potential assay kit (R8034, Molecular Devices). The procedure for thawing and plating the LSTT cells was identical to the Ca^2+ influx assay (see above). The membrane potential dye was dissolved in HBSS/HEPES buffer according to the manufacturer's instructions, and then cells were loaded with dye (100 μL/well) for 45 minutes to 2 hours at room temperature.

[2] = Pharmacokinetics after oral dose in fasted male Sprague-Dawley rats (plasma and brain); assay type: in vivo; conditions: rat
Protocol: Groups of three fasted male Sprague-Dawley rats received a 10 μmol/kg ([…]) oral dose of the test compound, administered by gavage. The compounds were prepared as a solution in a 10% DMSO/poly(ethylene glycol)-400 (v/v). Blood samples were obtained from each animal at various time points up to eight hours after dosing.
Test compound was selectively extracted from plasma and brain homogenate using liquid-liquid extraction with tert-butylmethylether. The compounds of interest were separated from co-extracted contaminants on a 50×3 mm, Luna CN column (Phenomenex), with an acetonitrile:0.1% aqueous trifluoroacetic acid mobile phase at a flow rate of 0.35 ml/min. Plasma concentrations were determined by HPLC-MS/MS on an API2000 with Turbo Ion Spray interface, with MRM detection in the positive ionization mode. To calibrate compound concentration, a separate portion of each tissue sample was spiked with a known quantity of test compound and analyzed simultaneously with the samples.

[3] = system: osteoarthritic rats; assay: Effects on hind limb grip force in MIA-induced osteoarthritic rats; assay type: in vivo
Protocol: Unilateral knee joint osteoarthritis was induced in the rats by a single intra-articular (i.a.) injection of sodium monoiodoacetate (MIA) (Sigma, St. Louis, Mo.) (3 mg in 0.05 mL sterile isotonic saline) into the joint cavity using a 26G needle under light (2-4%) halothane (Halocarbon Laboratories, River Edge, N.J.) anesthesia. Following injection, the animals were allowed to recover from the effects of anesthesia (usually 5-10 minutes) before returning them to their home cages. Animals were tested 21 days after MIA injection. Measurements of peak hind limb grip force were conducted by recording the maximum compressive force exerted on the hind limb strain gauge setup, in a commercially available grip force
(§1) FIG. 1—depicts the effect of Example 1 on hindlimb grip force in osteoarthritic rats measurement system (Columbus Instruments, Columbus, Ohio). […] During testing, each rat was gently restrained by grasping around its rib cage and then allowed to grasp the wire mesh frame (10-12 cm^2) attached to the strain gauge. The experimenter then moved the animal in a rostral-to-caudal direction until the grip was broken. Each rat was sequentially tested twice at approximately 2-minute interval to obtain a raw mean grip force (CFmax). […] At the 100 μmol/kg dose in the osteoarthritis grip force model, the measured plasma concentration of Example 1 was 6.2 μM.

[4] = Plasma concentration measured in the osteoarthritis grip force model; assay type: in vivo, rats
From the text: as §1, with “(CFmax). This raw mean grip force data was in turn converted to a maximum hind limb compressive force (CFmax) (gram force) per kg body weight for each animal. A group of age matched naïve animals was added to each experiment and the data obtained from the different dose groups for the compound being tested were compared to the naïve group.” for “(CFmax).”

Human TRPA1, sequence (O75762 whole entry): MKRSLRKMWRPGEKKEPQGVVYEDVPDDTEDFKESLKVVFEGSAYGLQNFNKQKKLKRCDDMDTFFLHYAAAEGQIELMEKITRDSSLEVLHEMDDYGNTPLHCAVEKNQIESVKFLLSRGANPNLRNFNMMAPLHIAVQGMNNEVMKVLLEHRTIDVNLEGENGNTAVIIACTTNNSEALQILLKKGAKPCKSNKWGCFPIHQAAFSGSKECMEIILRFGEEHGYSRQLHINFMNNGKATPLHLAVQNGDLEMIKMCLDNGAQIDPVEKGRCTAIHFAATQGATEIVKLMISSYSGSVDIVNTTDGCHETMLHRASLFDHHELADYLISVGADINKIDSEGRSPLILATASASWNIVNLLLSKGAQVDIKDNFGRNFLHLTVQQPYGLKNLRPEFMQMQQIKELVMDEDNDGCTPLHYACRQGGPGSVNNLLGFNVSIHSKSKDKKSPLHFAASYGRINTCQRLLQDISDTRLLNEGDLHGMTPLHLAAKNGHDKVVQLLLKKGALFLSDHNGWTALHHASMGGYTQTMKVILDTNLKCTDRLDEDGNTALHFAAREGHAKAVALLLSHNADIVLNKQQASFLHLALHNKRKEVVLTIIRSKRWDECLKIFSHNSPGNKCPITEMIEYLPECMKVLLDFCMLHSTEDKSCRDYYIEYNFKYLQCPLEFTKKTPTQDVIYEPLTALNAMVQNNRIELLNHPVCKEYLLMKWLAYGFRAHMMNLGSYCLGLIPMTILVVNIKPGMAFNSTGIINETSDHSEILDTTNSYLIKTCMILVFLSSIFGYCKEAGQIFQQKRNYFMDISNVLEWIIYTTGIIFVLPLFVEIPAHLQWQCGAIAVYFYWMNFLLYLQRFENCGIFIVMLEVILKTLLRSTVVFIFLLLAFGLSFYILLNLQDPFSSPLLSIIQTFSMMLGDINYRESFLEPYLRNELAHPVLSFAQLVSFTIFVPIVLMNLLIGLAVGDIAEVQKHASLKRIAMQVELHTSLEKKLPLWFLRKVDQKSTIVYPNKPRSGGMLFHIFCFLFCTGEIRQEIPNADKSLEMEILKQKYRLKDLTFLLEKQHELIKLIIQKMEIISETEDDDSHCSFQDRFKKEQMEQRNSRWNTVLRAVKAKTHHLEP

Molecule | IC50 [1] [µM] | other results
CCC(=N\O)/C(C)=C/c1ccccc1F [Example 3, (1E,3E)-1-(2-fluorophenyl)-2-methylpent-1-en-3-one oxime] | 4.6 | 
CCCCC(/C=C/c1ccc(F)cc1)=N\O [Example 16, (1E,3E)-1-(4-fluorophenyl)hept-1-en-3-one oxime] | > 100 | 
CCC(=N\O)/C(C)=C/c1ccc(F)c(F)c1 [Example 14, (1E,3E)-1-(3,4-difluorophenyl)-2-methylpent-1-en-3-one oxime] | 0.574 | 
CCC(=N\O)/C(C)=C/c1ccc(F)c(C(F)(F)F)c1 [Example 18, (1E,3E)-1-[4-fluoro-3-(trifluoromethyl)phenyl]-2-methylpent-1-en-3-one oxime] | > 100 | 
CC(=C\c1ccc(F)cc1)/C(=N\O)C(C)C [Example 7, (1E,3Z)-1-(4-fluorophenyl)-2,4-dimethylpent-1-en-3-one oxime] | 0.85 | 
CCCC(=N\O)/C(C)=C/c1ccc(F)cc1 [Example 4, (1E,3E)-1-(4-fluorophenyl)-2-methylhex-1-en-3-one oxime] | 0.5 | 
CCC(=N\O)/C(C)=C/c1cc(F)c(F)c(F)c1 [Example 15, (1E,3E)-2-methyl-1-(3,4,5-trifluorophenyl)pent-1-en-3-one oxime] | 4.67 | 
CCC(=N\O)/C(C)=C/c1ccc(F)c(Cl)c1 [Example 9, (1E,3E)-1-(3-chloro-4-fluorophenyl)-2-methylpent-1-en-3-one oxime] | 6 | 
CCC(=N\O)/C(C)=C/c1ccc(F)cc1 [Example 1, (1E,3E)-1-(4-fluorophenyl)-2-methylpent-1-en-3-one oxime] |  | Cmax ([2]; 10 umol/kg, oral, plasma): 720 nM; Kp ([2]; brain and plasma, 10 μmol/kg, after oral administration, text calls it brain/plasma ratio): 1.2; bioavailability ([2]; plasma, 10 umol/kg, oral gavage, solution in 10% DMSO/PEG-400): 38%; ED50 ([3]; Rattus norvegicus, po, 21 days after MIA injection, 95% CI 79-158 μmol/kg, read-out: ED50, hindlimb grip force): 112 µmol/kg; efficacy in osteoarthritis grip force model ([3]; p.o.): fully efficacious; measured plasma concentration ([4]; 100 μmol/kg oral dose, osteoarthritis grip force model): 6.2 µM; plasma and brain exposure ([4]; with increasing oral dose, rat): excellent plasma and brain exposure
CC(=C\c1ccc(F)cc1)/C(=N/O)C(C)(C)C [Example 5, (1E,3E)-1-(4-fluorophenyl)-2,4,4-trimethylpent-1-en-3-one oxime] | 8 | 
(1E,3E)-1-(4-fluorophenyl)pent-1-en-3-one oxime and (1E,3Z)-1-(4-fluorophenyl)pent-1-en-3-one oxime, about 1:1 mixture [Example 13] | 9.46 | 

Second part, led by results:

IC50 [1] [µM] | Molecule | other results
5.91 | CCCC(/C=C/c1ccc(F)cc1)=N\O [Example 12, (1E,3E)-1-(4-fluorophenyl)hex-1-en-3-one oxime] | 
3.3 | CC(=C\c1ccc(F)cc1)/C(=N/O)C(C)C [Example 8, (1E,3E)-1-(4-fluorophenyl)-2,4-dimethylpent-1-en-3-one oxime] | 
20.6 | CC(/C=C/c1ccc(F)cc1)=N\O [Example 11, (2E,3E)-4-(4-fluorophenyl)but-3-en-2-one oxime] | 
> 100 | CCC(=N\O)/C(C)=C/c1ccc(F)c(C)c1 [Example 17, (1E,3E)-1-(4-fluoro-3-methylphenyl)-2-methylpent-1-en-3-one oxime] | 
4.4 | CCCCC(=N\O)/C(C)=C/c1ccc(F)cc1 [Example 6, (1E,3E)-1-(4-fluorophenyl)-2-methylhept-1-en-3-one oxime] | 
